{"source": "patent US20220281902A1", "about": "“MIT[…] IMPROVE METABOLIC SYNDROME DURING AGING” (The Board of Trustees of the Leland Stanford Junior …, priority 2019, published 2022)", "key": {"[1]": {"tested_on": "PGC-1α, NRF1, SIRT1, Atg5, PINK1, Parkin transcripts", "assay": "qPCR of mitochondriogenesis transcripts and mitophagy markers", "type": "in vivo, mouse", "protocol": "(§1) Gene expression & RT qPCR Analyses. Total RNA was isolated using a commercially available kit (OMEGA bio-tek, R6812-02) according to the manufacturer's instructions. cDNA was generated using the PrimeScript RT reagent kit (TAKARA, RR047A). Gene expression were determined by qPCR as described in the product manual. The analysis was evaluated by Bio-Rad Real-Time System (CFX Connect™).\n(§2) RNAs from 10 mice (5 treated and 5 Ctrl.) VF fat or livers were isolated by using omega Bio-Tek reagents, and cDNA was transcribed by (TAKARA). qPCR was then performed by using iQ SYBR Green mastermix bioscience on a CFX96 Real-Time System/C1000 Thermal Cycler (Bio-Rad)."}, "HeLa cells": {"tested_on": "HeLa cells", "assay": "In vivo cervical cancer mouse model", "design": "species or system mice", "protocol": "To investigate the effects of an example compound on a cervical cancer mouse model, HeLa cells were introduced to the back of mice (five groups, 5-6 mice in each group). After the tumor volume reached about 200 mm^3, compound HG1a-1 solution (5, 20, 50 mg/kg) was dosed by intraperitoneal (IP) injection, every second day for ten days. Control mice were dosed with Saline and Taxol solution (PTX, 20 mg/kg). Tumor weight and volume were measured."}, "[2]": {"tested_on": "UCP1, UCP2, CIDEA, Cox8b transcripts", "assay": "qPCR of thermoregulatory factors and beiging inducers", "type": "in vivo, mouse", "details": "brown fat, after 14 months of treatment", "protocol": "as §1, §2"}, "[3]": {"molecular_target": "T1, cytochrome c oxidase (CcO) (Mus musculus, UniProt P00397)", "T1 construct": "Mouse livers were extracted, and liver mitochondria were obtained using a mitochondria isolation kit; from tissue; host or cells: liver mitochondria of treated and control C57BL/6 mice, isolated with a Sigma-Aldrich mitochondria isolation kit; activity kit Sigma-Aldrich CYTOCOX1", "assay": "CcO activity in liver mitochondria of treated mice", "type": "in vivo", "protocol": "Measurement of CcO activity in liver mitochondria. Mouse livers were extracted, and liver mitochondria were obtained using a mitochondria isolation kit (Sigma-Aldrich). CcO activity in liver mitochondria was measured using a cytochrome c oxidase assay kit (Sigma-Aldrich, CYTOCOX1, USA."}, "[4]": {"assay": "Chronic 10-week treatment of T2DM mice", "type": "in vivo", "protocol": "Next, in a biased investigation on impact of partial inhibition as a potential anti-diabetic treatment, two groups of type 2 diabetes mellitus (T2DM) and healthy control mice were prepared. Four weeks after the verification of T2DM, diabetic mice began to receive the exemplary subject compound. The chronic treatment phase lasted for 10 weeks."}, "p16, p21 transcripts": {"tested_on": "p16, p21 transcripts", "assay": "qPCR of DNA damage and WAT senescence markers", "type": "in vivo, mouse", "details": "WAT, after 14 months treatment", "protocol": "as §1, §2"}, "ATP production": {"tested_on": "ATP production", "assay": "ATP level in liver of treated mice", "type": "in vivo, mouse", "source_text": "Measurement of ATP level in liver. For measuring ATP, cellular ATP in livers was extracted using an ATP extraction kit of an ATP assay kit (Sigma-Aldrich, MAKI 90). The ATP level was quantitatively measured by the absorbance at 570 nm (A570)."}, "[5]": {"assay": "DEXA body composition analysis and fat depot analysis", "type": "in vivo", "details": "14 month old mice"}, "[6]": {"assay": "Intra-peritoneal glucose tolerance test (IPGTT)", "type": "in vivo, C57BL/6 mice", "source_text": "The C57BL/6 mice were maintained on a standard purified mouse diet (PicoLab 5053 Rodent Diet 20; Lab Diets) until they reached 2 months of age when the treatments started. The CR animals were subjected to a lifelong restriction on PicoLab 5053 Rodent Diet 20; Lab Diets, starting at 12 weeks of age, with a daily food allotment of 60% of that eaten by the ad lib animals. Besides CR animals, the C57BL/6 groups in this study were fed the standard high fat diet (HFD; 60 or 40% fat). Body weights were measured weekly at the same time each week. Food and water intake were measured once every month for 3-6 consecutive days at the same time each month. Water consumption was measured for 2 weeks prior to the start of administration. Compound was generated and modified for better permeability in to mitochondria, evaluated by HPLC, was 96%-97%. The administration began at 8 weeks of age and continued for 16 months, until they became 18-month-old. The drug solution was prepared weekly in small batches by dissolving the compound into autoclaved water at the respective doses and filtering sterilely. Aliquots were collected from each batch and measured by HPLC to confirm stability of the compound. Water bottles and cages were changed twice weekly. […] Rectal body temperature was measured monthly, as described previously. Whole blood samples, and histopathology were analyzed after 14 months of treatment. […]"}, "[7]": {"tested_on": "TNF-α, IL-6, CRP, leptin receptor, CD68 transcripts", "assay": "qPCR of inflammatory factors, macrophage pan marker and leptin receptor", "type": "in vivo, mouse", "protocol": "as §1, §2"}, "[8]": {"details": "liver, 12- and 16-month chronic treatment"}, "[9]": {"details": "5, 20 and 50 mg/kg IP, after 10 days"}, "[10]": {"details": "visceral fat, 14 months old mice"}}, "data": [{"smiles": "Cc1ncsc1CCOC(=O)C[P+](c1ccccc1)(c1ccccc1)c1ccccc1.[Br-]", "note": "[HG1a-1, (2-(2-(4-Methylthiazol-5-yl)Ethoxy)-2-Oxoethyl) Triphenylphosphonium Bromide]", "values": [{"measurement": "Atg5 transcript level", "setting": "[1]; adipose tissue", "result": "enhancement"}, {"measurement": "Atg5 transcript level", "setting": "[1]; [8]", "result": "noticeable upgrade"}, {"measurement": "PINK1 transcript level", "setting": "[1]; [8]", "result": "noticeable upgrade"}, {"measurement": "Parkin transcript level", "setting": "[1]; [8]", "result": "noticeable upgrade"}, {"measurement": "SIRT1 transcript level", "setting": "[1]; liver, longer course of treatment", "result": "significant enhancement"}, {"measurement": "NRF1 transcript level", "setting": "[1]; livers of aged mice", "result": "increased notably"}, {"measurement": "PGC-1α transcript level", "setting": "[1]; livers of aged mice", "result": "increased notably"}, {"measurement": "tumor size", "setting": "HeLa cells; 5, 20, 50 mg/kg IP every second day for ten days, with increasing dose", "result": "decreased"}, {"measurement": "tumor volume relative to saline control", "setting": "HeLa cells; [9]", "result": "decreased"}, {"measurement": "tumor weight relative to saline control", "setting": "HeLa cells; [9]", "result": "decreased"}, {"measurement": "CIDEA expression amplified", "setting": "[2]", "result": "one-fold"}, {"measurement": "Cox8b expression amplified", "setting": "[2]", "result": 7, "unit": "fold"}, {"measurement": "UCP2 expression amplified", "setting": "[2]", "result": "> one-fold"}, {"measurement": "UPC1 expression increase", "setting": "[2]", "result": 20, "unit": "fold"}, {"measurement": "CcO inhibition activity", "setting": "[3]; 2 month old mice", "result": 67, "unit": "%"}, {"measurement": "CcO function higher than controls of the same model", "setting": "[3]; 12-month-long treated mice", "result": "about 20%"}, {"measurement": "CcO function vs same age subjects receiving a single dose", "setting": "[3]; 12-month-long treated mice", "result": "one-fold greater"}, {"measurement": "CcO inhibition activity", "setting": "[3]; 14 month old mice", "result": 65, "unit": "%"}, {"measurement": "drop of blood glucose level", "setting": "[4]; after one week (23 mM at time 0)", "result": 20, "unit": "%"}, {"measurement": "drop of blood glucose level", "setting": "[4]; by week 3, reached healthy controls", "result": 39, "unit": "%"}, {"measurement": "insulin elevations", "setting": "[4]; week 3", "result": "negligible"}, {"measurement": "p16 expression decline", "setting": "p16, p21 transcripts", "result": 10, "unit": "fold"}, {"measurement": "p21 expression", "setting": "p16, p21 transcripts", "result": "remained unchanged"}, {"measurement": "decrease of ATP level in liver compared to controls", "setting": "ATP production; 6 months", "result": 50, "unit": "%"}, {"measurement": "decrease of ATP level in liver compared to controls", "setting": "ATP production; long term treated mice", "result": 25, "unit": "%"}, {"measurement": "gonadal adipose mass", "setting": "[5]", "result": "valid reduction"}, {"measurement": "sub-scapular brown adipose mass", "setting": "[5]", "result": "minor effect"}, {"measurement": "body fat mass", "setting": "[5]; DEXA", "result": "recognizable decrease"}, {"measurement": "lean mass", "setting": "[5]; DEXA", "result": "trivial changes"}, {"measurement": "glucose tolerance (IPGTT)", "setting": "[6]; after 6 months", "result": "normal glucose tolerance"}, {"measurement": "glucose tolerance (IPGTT)", "setting": "[6]; young ages of 8 weeks and 12 weeks", "result": "mildly glucose-intolerant"}, {"measurement": "leptin receptor transcript abundance increase", "setting": "[7]; mouse livers", "result": 2, "unit": "fold"}, {"measurement": "decline in abundance of CD68", "setting": "[7]; visceral fat", "result": 5, "unit": "fold"}, {"measurement": "CRP transcript", "setting": "[7]; [10]", "result": "trivial changes"}, {"measurement": "IL-6 transcript", "setting": "[7]; [10]", "result": "declined markedly"}, {"measurement": "TNF-α transcript", "setting": "[7]; [10]", "result": "declined markedly"}]}]}
